# According to US20200361871A1 (Enterprise Therapeutics Ltd., priority 2018, published 2020):
# Target: human TMEM16A (TMEM16Aabc variant) (Homo sapiens, UniProt Q5XXA6, DEL476-501, form not given)
# Experiment: Automated whole-cell patch clamp (Qpatch) TMEM16A potentiator assay in FRT cells stably expressing human TMEM16A
# Format: cell-based
# Conditions: for % Potentiation @ 3.33 μM Avg: 3.33 μM solution of test compound, percentage increase of baseline TMEM16A current; for EC50: calculated EC50, Qpatch TMEM16A current at +70 mV
# Excerpt: FIG. 1 is an example trace from a whole-cell patch clamp (Qpatch) TMEM16A potentiator assay as used in Biological Example 95 and illustrates the methodology used in the assay. In FIG. 1: S is Saline; V is Vehicle; #1 is Test Compound concentration #1; #2 is Test Compound concentration 2; #3 is Test Compound concentration 3; #4 is Test Compound concentration 4; #5 is Test Compound concentration #5; and R is Reference. The arrow in column V represents the baseline current, IBL. The arrows in each of the columns #1, #2, #3, #4, #5 and R represent I#[1], I#[2], I#[3], I#[4], I#[5] and I[Ref], which are the peak currents during the incubation periods for test compounds concentrations #1 to #5 and the Reference.
# Fisher rat thyroid (FRT) cells stably expressing human TMEM16A (TMEM16Aabc variant; Dr Luis Galietta, Insituto Giannina, Italy) were cultured in T-75 flasks in Hams F-12 media with Coon's modification (Sigma) supplemented with 10% (v/v) foetal bovine serum, penicillin-streptomycin (10,000 U/mL/10000 μg/mL), G-418 (750 μg/mL), L-glutamine (2 mM) and sodium bicarbonate solution (7.5% v/v). At ˜90% confluence cells were harvested for experiments by detachment with a 2:1 (v/v) mixture of Detachin (BMS Biotechnology) and 0.25% (w/v) trypsin-EDTA. Cells were diluted to a density of 3.5-4.5×10^6 cells/mL with media consisting of CHO-S-SFM II (Sigma), 25 mM HEPES (Sigma) and Soy bean trypsin inhibitor (Sigma).
# FRT-TMEM16A cells were whole-cell patch clamped using an automated planar patch clamp system (Qpatch, Sophion). Briefly, once high resistance (GOhm) seals were established between the cells and the planar recording array the patch was ruptured using suction pulses to establish the whole-cell recording configuration of the patch clamp technique. The assay employed the following solutions (all reagents Sigma): Intracellular solution (mM): N-methyl-D-glucamine 130, CaCl2 18.2, MgCl2 1, HEPES 10, EGTA 10, BAPTA 20, Mg-ATP 2, pH 7.25, 325 mOsm with sucrose.
# Extracellular solution (mM): N-methyl-D-glucamine 130, CaCl2 2, MgCl2 1, HEPES 10, pH 7.3, 320 mOsm with sucrose.
# The intracellular solution buffers intracellular calcium at levels required to give ˜20% activation of the maximal TMEM16A mediated current (EC20 for calcium ions). Cells were voltage clamped at a holding potential of −70 mV and a combined voltage step (to +70 mV)/ramp (−90 my to +90 mV) was applied at 0.05 Hz. After a period of current stabilisation test compounds, solubilised in 100% (v/v) DMSO and subsequently diluted into extracellular solution, were applied to generate a cumulative concentration response curve. Each concentration of test compound was incubated for 5 minutes before addition of the next concentration. After the final concentration was tested a supramaximal concentration of either a known active positive modulator or the TMEM16A inhibitor, CaCCinhA01 (Del La Fuente et al, 2008) was added to define the upper and lower limits of the assay.
# Compound activity was quantified by measuring the increase in current upon compound addition and expressing this as a percentage increase of baseline TMEM16A current level. Percentage increases in current were determined for each concentration and the data plotted as a function of concentration using either the Qpatch software or Graphpad Prism v6.05 providing the concentration which gave 50% of its maximal effect (EC50) and maximum efficacy (percentage of baseline increase).
# In FIG. 1, IBL equals baseline current, I[#1] equals the peak current during test compound concentration 1 incubation period and so on.
# Peak TMEM16A current at +70 mV was plotted as a function of time over the assay period. Baseline current (IBL) was measured after a period of stabilisation. The increase in current for each compound addition was determined by taking the peak current during the incubation period and subtracting the current from the previous recording period and then expressing this as a percentage of the baseline current. […]
# human TMEM16A (TMEM16Aabc variant), sequence (Q5XXA6 with tags, fused parts or gaps DEL476-501): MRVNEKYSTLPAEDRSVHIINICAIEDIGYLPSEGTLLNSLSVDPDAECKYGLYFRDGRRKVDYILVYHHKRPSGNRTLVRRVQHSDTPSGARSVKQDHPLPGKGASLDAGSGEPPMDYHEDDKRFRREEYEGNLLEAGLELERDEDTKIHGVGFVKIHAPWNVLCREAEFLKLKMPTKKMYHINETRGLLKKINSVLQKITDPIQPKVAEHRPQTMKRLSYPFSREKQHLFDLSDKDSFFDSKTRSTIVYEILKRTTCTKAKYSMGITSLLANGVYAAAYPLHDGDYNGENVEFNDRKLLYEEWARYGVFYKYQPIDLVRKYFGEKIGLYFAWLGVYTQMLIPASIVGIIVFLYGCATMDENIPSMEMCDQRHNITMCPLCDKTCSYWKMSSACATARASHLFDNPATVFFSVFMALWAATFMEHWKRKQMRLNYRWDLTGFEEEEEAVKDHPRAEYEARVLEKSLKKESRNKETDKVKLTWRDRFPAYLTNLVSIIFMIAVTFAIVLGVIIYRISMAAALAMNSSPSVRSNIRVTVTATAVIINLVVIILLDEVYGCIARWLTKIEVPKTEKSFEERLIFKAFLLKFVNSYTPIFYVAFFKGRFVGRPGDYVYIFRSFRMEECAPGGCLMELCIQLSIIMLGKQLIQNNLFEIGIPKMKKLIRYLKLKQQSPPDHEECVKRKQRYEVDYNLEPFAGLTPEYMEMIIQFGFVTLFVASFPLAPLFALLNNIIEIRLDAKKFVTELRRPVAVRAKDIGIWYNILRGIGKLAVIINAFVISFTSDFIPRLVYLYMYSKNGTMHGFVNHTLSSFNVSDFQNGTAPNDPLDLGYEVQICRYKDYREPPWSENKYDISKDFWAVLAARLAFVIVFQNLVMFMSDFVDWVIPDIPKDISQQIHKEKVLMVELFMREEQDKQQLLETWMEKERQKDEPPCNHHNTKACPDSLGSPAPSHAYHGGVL
Compound,% Potentiation @ 3.33 μM Avg,EC50
"O=C(Cc1cc(Cl)ccc1O)Nc1ccnc(C(=O)NC2(CO)CCOC2)c1 (racemic) [Example 35, 4-[[2-(5-Chloro-2-hydroxy-phenyl)acetyl]amino]-N-[3-(hydroxymethyl)tetrahydrofuran-3-yl]pyridine-2-carboxamide]",180%,190 nM
"CC(C#N)(CO)NC(=O)c1cc(NC(=O)Cc2cc(Cl)ccc2O)ccn1 (racemic) [Example 46, 4-[[2-(5-Chloro-2-hydroxy-phenyl)acetyl]amino]-N-(1-cyano-2-hydroxy-1-methyl-ethyl)pyridine-2-carboxamide]",275%,250 nM
"CC(C)(C)NC(=O)c1cc(NC(=O)[C@@H]2CCc3ccccc32)ccn1 (single isomer, unassigned) [Example 21a, N-tert-Butyl-4-[[(1R)-indane-1-carbonyl]amino]pyridine-2-carboxamide or N-tert-Butyl-4-[[(1S)-indane-1-carbonyl]amino]pyridine-2-carboxamide]",99%,1570 nM
"CC(C)(C)NC(=O)c1cc(NC(=O)[C@@H]2CCc3ccccc32)ccn1 (single isomer, unassigned) [Example 21b, N-tert-Butyl-4-[[(1R)-indane-1-carbonyl]amino]pyridine-2-carboxamide or N-tert-Butyl-4-[[(1S)-indane-1-carbonyl]amino]pyridine-2-carboxamide]",164%,1080 nM
"O=C(Cc1cc(Cl)ccc1O)Nc1ccnc(C(=O)N[C@H]2CCCC[C@@H]2O)c1 (single isomer, unassigned) [Example 31.3a, 4-[[2-(5-Chloro-2-hydroxy-phenyl)acetyl]amino]-N-[(1S,2S)-2-hydroxycyclohexyl]pyridine-2-carboxamide or 4-[[2-(5-Chloro-2-hydroxy-phenyl)acetyl]amino]-N-[(1R,2R)-2-hydroxycyclohexyl]pyridine-2-carboxamide]",238%,550 nM
"O=C(Cc1cc(Cl)ccc1O)Nc1ccnc(C(=O)N[C@@]2(CO)CCOC2)c1 (single isomer, unassigned) [Example 35a, 4-[[2-(5-Chloro-2-hydroxy-phenyl)acetyl]amino]-N-[(3R)-3-(hydroxymethyl)tetrahydrofuran-3-yl]pyridine-2-carboxamide or 4-[[2-(5-chloro-2-hydroxy-phenyl)acetyl]amino]-N-[(3S)-3-(hydroxymethyl)tetrahydrofuran-3-yl]pyridine-2-carboxamide]",137%,100 nM
"O=C(Cc1cc(Cl)ccc1O)Nc1ccnc(C(=O)N[C@@]2(CO)CCOC2)c1 (single isomer, unassigned) [Example 35b, 4-[[2-(5-Chloro-2-hydroxy-phenyl)acetyl]amino]-N-[(3R)-3-(hydroxymethyl)tetrahydrofuran-3-yl]pyridine-2-carboxamide or 4-[[2-(5-chloro-2-hydroxy-phenyl)acetyl]amino]-N-[(3S)-3-(hydroxymethyl)tetrahydrofuran-3-yl]pyridine-2-carboxamide]",190%,310 nM
"C[C@](C#N)(CO)NC(=O)c1cc(NC(=O)Cc2cc(Cl)ccc2O)ccn1 (single isomer, unassigned) [Example 46a, 4-[[2-(5-Chloro-2-hydroxy-phenyl)acetyl]amino]-N-[(1S)-1-cyano-2-hydroxy-1-methyl-ethyl]pyridine-2-carboxamide or 4-[[2-(5-chloro-2-hydroxy-phenyl)acetyl]amino]-N-[(1R)-1-cyano-2-hydroxy-1-methyl-ethyl]pyridine-2-carboxamide]",249%,110 nM
"C[C@](C#N)(CO)NC(=O)c1cc(NC(=O)Cc2cc(Cl)ccc2O)ccn1 (single isomer, unassigned) [Example 46b, 4-[[2-(5-Chloro-2-hydroxy-phenyl)acetyl]amino]-N-[(1S)-1-cyano-2-hydroxy-1-methyl-ethyl]pyridine-2-carboxamide or 4-[[2-(5-chloro-2-hydroxy-phenyl)acetyl]amino]-N-[(1R)-1-cyano-2-hydroxy-1-methyl-ethyl]pyridine-2-carboxamide]",215%,–
"CC(C)(C)NC(=O)c1cc(NC(=O)C2CCc3c(Cl)ccc(O)c32)ccn1 (single isomer, unassigned) [Example 57a, N-tert-butyl-4-[[(1S) or (1R)-4-chloro-7-hydroxy-indane-1-carbonyl]amino]pyridine-2-carboxamide]",285%,510 nM
"CC(C)(C)NC(=O)c1cc(NC(=O)C2CCc3c(Cl)ccc(O)c32)ccn1 (single isomer, unassigned) [Example 57b, N-tert-butyl-4-[[(1S) or (1R)-4-chloro-7-hydroxy-indane-1-carbonyl]amino]pyridine-2-carboxamide]",162%,670 nM
CC(C)(C)NC(=O)c1cc(NC(=O)Cc2ccc3c(c2)OCCO3)ccn1 [Compound 5.32],285%,–
"CC(C)(C)NC(=O)c1cc(NC(=O)Cc2ccccc2O)ccn1 [Example 1, N-tert-Butyl-4-[[2-(2-hydroxyphenyl)acetyl]amino]pyridine-2-carboxamide]",203%,210 nM
"CCC(C)(C)NC(=O)c1cccc(NC(=O)Cc2ccccc2O)c1 [Example 1.1, N-(1,1-Dimethylpropyl)-3[[2-(2-hydroxyphenyl)acetyl]amino]benzamide]",182%,560 nM
"O=C(Cc1cc(Cl)ccc1O)Nc1cccc(C(=O)NC23CC4CC(CC(C4)C2)C3)c1 [Example 1.2, N-(1-Adamantyl)-3-[[2-(5-chloro-2-hydroxy-phenyl)acetyl]amino]benzamide]",170%,540 nM
"O=C(Cc1cc(Cl)ccc1O)Nc1ccnc(C(=O)NC23CC4CC(CC(C4)C2)C3)c1 [Example 1.3, N-(1-Adamantyl)-4-[[2-(5-chloro-2-hydroxy-phenyl)acetyl]amino]pyridine-2-carboxamide]",233%,240 nM
"COCCC(C)(C)NC(=O)c1cc(NC(=O)Cc2cc(Cl)ccc2O)ccn1 [Example 1.4, 4-[[2-(5-Chloro-2-hydroxy-phenyl)acetyl]amino]-N-(3-methoxy-1,1-dimethyl-propyl)pyridine-2-carboxamide]",195%,400 nM
"CCC(C)(C)NC(=O)c1cccc(NC(=O)Cc2cc(Cl)ccc2O)c1 [Example 1.5, 3-[[2-(5-Chloro-2-hydroxy-phenyl)acetyl]amino]-N-(1,1-dimethylpropyl)benzamide]",149%,340 nM
"CC1(NC(=O)c2cc(NC(=O)Cc3cc(Cl)ccc3O)ccn2)CCC1 [Example 1.6, 4-[[2-(5-Chloro-2-hydroxy-phenyl)acetyl]amino]-N-(1-methylcyclobutyl)pyridine-2-carboxamide]",255%,60 nM
"CC1(NC(=O)c2cc(NC(=O)Cc3cc(Cl)ccc3O)ccn2)CCCCC1 [Example 1.7, 4-[[2-(5-Chloro-2-hydroxy-phenyl)acetyl]amino]-N-(1-methylcyclohexyl)pyridine-2-carboxamide]",239%,150 nM
